Columns and labels:
CT-26 cells = test: Cytotoxicity in CT-26 cancer cell line (cell titer glo 2.0); format: cell-based; conditions: Mus musculus, CT26; overnight incubation, triplicate, 6 concentrations; read-out: EC50 (percent survival, CT-26 cells)
Experimental: The CT-26 cell lines were plated at the appropriate pre-determined plating density in the 96 well plate and allowed to attach for about 16 hrs. After a suitable confluence was ensured (about 70-80%) the media was replaced with fresh media and the test compound was added to the plate in triplicate at 6 concentrations. Appropriate vehicle and positive controls were also added, and the plate was incubated overnight in a CO2 (95%)/O2 (5%) incubator at 37° C. temperature. After incubation the plate was assayed for cytotoxicity using cell titer glo 2.0 assay (Promega) on the BioTek Synergy HT plate reader (Gen5 software).

[1] = DPPH antioxidant (free radical scavenging) assay; format: biochemical; conditions: duplicate, 5 concentrations, read at 517 nm; read-out: IC50 (DPPH assay, anti-oxidant activity)
Experimental: NWD-19, NWD-15, and NWD-14 were evaluated for antioxidant activity using the 2,2-diphenyl-1-picrylhydrazyl (DPPH) assay. The DPPH assay was used to predict antioxidant activities by mechanism in which antioxidants act to inhibit lipid oxidation, so scavenging of DPPH radical and therefore determinate free radical scavenging capacity. The DPPH antioxidant assay kit (Dokindo Molecular Technologies, Inc.) was used, and the plates were read at 517 nm on the BioTek Synergy HT plate reader (Gen5 software). All compounds were tested in duplicate at 5 concentrations to determine the anti-oxidant activity of each compound.

RPE primary cells = test: TBARS assay in RPE primary cells after AAPH induced oxidative stress; format: cell-based; conditions: AAPH 10 mM, activity up to 0.078 μM concentration
Experimental: Primary retinal pigment endothelial cell line (RPE) were plated in appropriate growth medium in a 96 well plate overnight (16-24 hrs). Cells were then treated with NWD-19 at 7 concentrations and incubated overnight. Following incubation all wells were treated with AAPH at 10 mM to induce oxidative stress and incubated overnight. The TBARS assay was then utilized to evaluate the anti-oxidant potential of the compound in the RPE cells at various concentrations.

[2] = tested on: Primary retinal pigment endothelial cell line (RPE); test: Protection from AAPH induced oxidative stress in RPE cells (viability, cell titer glo 2.0); format: cell-based; conditions: 1.25 μM NWD-19 pre-treatment overnight, AAPH 10 mM overnight
Experimental: Primary retinal pigment endothelial cell line (RPE) were plated in appropriate growth medium in a 96 well plate overnight (16-24 hrs). Once 80-90% confluence was achieved the cells were then treated with NWD-19 at a concentration range of 0.039 uM to 1.25 μM. Appropriate blanks were also added and the plate was incubated overnight in a CO2 (95%)/O2 (5%) incubator at 37° C. temperature. Following incubation all wells were treated with AAPH at 10 mM to induce oxidative stress and incubated overnight. After incubation the plate was assayed for viability using cell titer glo 2.0 assay (Promega).

[3] = tested on: Benzalkonium chloride induced dry eyes; test: Benzalkonium chloride induced dry eyes in C57BL/6 mice; format: in vivo; conditions: daily topical drops 10 μM from day 8 to day 21 of 0.2% BAC treatment
Experimental: Benzalkonium chloride (BAC) is a commonly used preservative in ophthalmic solutions. However, it has been reported to increase the risk of dry eye disease due to its toxicity on the ocular surface, the conjunctiva, the cornea and even deeper ocular structures. 5 uL 0.2% BAC in mice eyes has been reported to cause dry eye symptoms without affecting aqueous tear production, inflammation, or corneal smoothness (Richard Zhang, et al. Dose-dependent benzalkonium chloride toxicity imparts ocular surface epithelial changes with features of dry eye disease, The Ocular Surface, Volume 18, Issue 1, 2020, Pages 158-169).
Symptoms of dry eye disease were induced in 24 male and female C57/BL6 mice for 21 days using 0.2% daily eye drops of BAC. Daily topical application of NWD-19 at 10 μM concentration started at day 8 post BAC treatment and continued until day 21, whereas the control mice eyes were treated with PBS during this period. […] At pre-dose and subsequently on days 7, 14 and 21 post dose the mice eyes were examined by a veterinary ophthalmologist for corneal lesions and dry eye was also evaluated using a drop of 0.1% fluorescein solution in each treated eye and observation and scoring using a cobalt blue filter. […]

Row | IC50 [1] [nM] | Compound | EC50 (CT-26 cells) [µM] | anti-oxidant activity in TBARS assay (malonaldehyde equivalents) (RPE primary cells) | cell survival after AAPH induced oxidative stress [2] [%] | condition of the eyes (corneal lesions, dry eye fluorescein scoring) compared to vehicle control eyes [3]
1 | 2100 | CC1=NN(c2ccccc2)C(=O)C1CCCCCCCCCC[P+](c1ccccc1)(c1ccccc1)c1ccccc1.[Br-] (stereo not shown) [NWD-19, (10-(3-methyl-5-oxo-1-phenyl-4,5-dihydro-1H-pyrazol-4-yl)decyl) triphenyl phosphonium bromide] | 9.6 | significant anti-oxidant activity | ~50 | masked improvement
2 | 2800 | O=c1cc(CCCC[P+](c2ccccc2)(c2ccccc2)c2ccccc2)[nH]n1-c1ccccc1 [NWD-14, (4-(5-oxo-1-phenyl-2,5-dihydro-1H-pyrazol-3-yl)butyl) triphenyl phosphonium bromide] | – | – | – | –
3 | 2300 | CC1=NN(c2ccccc2)C(=O)C1CCCC[P+](c1ccccc1)(c1ccccc1)c1ccccc1 (stereo not shown) [NWD-15, (4-(3-methyl-5-oxo-1-phenyl-4,5-dihydro-1H-2l4-pyrazol-4-yl)butyl) triphenyl-phosphonium bromide] | – | – | – | –
